The results in this text go back to US20040077655A1, “Piperazine derivatives for treatment of bacterial infections” (priority 2000, published 2004).

A short description of the experiment: MIC of test compounds against various organisms. Format: cell-based, S. aureus, S. pneumoniae, H. influenzae, E. faecalis. The protocol:
The MIC (μg/ml) of test compounds against various organisms was determined: S. aureus Oxford, S. aureus WCUH29, S. pneumoniae 1629, S. pneumoniae N1387, S. pneumoniae ERY 2, H. influenzae Q1, E. faecalis 7.

Each structure is given as a SMILES string. Where only a bound is given, the exact number is not on record here.

For `COc1ccc2nccc(NC(=O)N3CCN(CC(=O)c4cnc5ccccc5n4)CC3)c2n1` [Example 10, 4-(2-Oxo-2-quinoxalin-2-yl-ethyl)-piperazine-1-carboxylic acid (6-methoxy-[1,5]naphthyridin-4-yl)-amide.], the MIC was ≤ 2 µg/mL.

In the case of `COc1ccc2nccc(NC(=O)N3CCN(CC(=O)c4ccc5c(c4)NC(=O)CO5)CC3)c2n1` [Example 12, 4-[2-Oxo-2-(3-oxo-3,4-dihydro-2H-benzo[1,4]oxazin-6-yl)-ethyl]piperazine-1-carboxylic acid (6-methoxy-[1,5]naphthyridin-4-yl)-amide.], the MIC is ≤ 0.25 µg/mL.
